Experimental data from patent US7351882B2, “Canola line 45H24” (Pioneer Hi-Bred International, Inc., priority 2005, dated 2008).

System: Brassica napus variety 45H24
Assay: Herbicide resistance rating of canola variety 45H24 at standard recommended application rates
Type: in vivo
Conditions: for Herbicide resistance (description): result in words
Source text: Herbicide Resistance: Resistance to various herbicides when applied at standard recommended application rates is expressed on a scale of 1 (resistant), 2 (tolerant), or 3 (susceptible).

O=C(O)CNCP(=O)(O)O [Glyphosate]
Herbicide resistance (description): resistant | Herbicide resistance (description) (listed as glyphosate): resistance | Herbicide resistance (mean rating) (scale 0 = not tested, 1 = resistant, 2 = tolerant, 3 = susceptible): 1.00
